Experiments:
ALK = target: T1, ALK (Homo sapiens, UniProt Q9UM73); experiment: In vitro kinase inhibition, Ambit Biosciences panel; type: binding; settings: lower numbers indicate stronger activities
T1 construct: purchased Ambit Biosciences
Procedure: (§1) Up to 518 different kinases have been identified in humans. They act on small molecules such as lipids, carbohydrates, amino acids, and nucleotides. To determine the scope of inhibitory effects of a representative compound of Formula (I) on known kinases, Compound 6 was tested against 104 commercially available kinases (Ambit Biosciences™) in vitro. 104 kinases included ABL1(E255K)-phosphorylated, ABL1(T315I)-phosphorylated, ABL1-phosphorylated, ACVR1B, ADCK3, AKT1, AKT2, ALK, AURKA, AURKB, AXL, BMPR2, BRAF, BRAF(V600E), BTK, CDK11, CDK2, CDK3, CDK7, CDK9, CHEK1, CSF1R, CSNK1D, CSNK1G2, DCAMKL1, DYRK1B, EGFR, EGFR(L858R), EPHA2, ERBB2, ERBB4, ERK1, FAK, FGFR2, FGFR3, FLT1, FLT3, FLT4, GSK3B, IGF1R, IKK-α, IKK-β, INSR, JAK2(JH1domain-catalytic), JAK3(JH1domain-catalytic), JNK1, JNK2, JNK3, KIT, KIT(D816V), KIT(V559D,T670I), LKB1, LRRK2, LRRK2(G2019S), MAP3K4, MAPKAPK2, MARK3, MEK1, MEK2, MET, MKNK1, MKNK2, MLK1, MTOR, p38-alpha, p38-beta, PAK1, PAK2, PAK4, PCTK1, PDGFRA, PDGFRB, PDPK1, PIK3C2B, PIK3CA, PIK3CG, PIM1, PIM2, PIM3, PKAC-alpha, PLK1, PLK3, PLK4, PRKCE, PYK2, RAFT, RET, RIOK2, ROCK2, RSK2, SNARK, SRC, SRPK3, SYK, TAK1, TGFBR1, TIE2, TRKA, TSSK1B, TYK2(JH1domain-catalytic), ULK2, VEGFR2, YANK3 and ZAP70.
(§2) Inhibition activity of Compound 6 was reported as percent control where lower numbers indicate stronger activities. […] Conventionally, the percent control of less than 35 is deemed to be significant inhibition of kinase activity as the numeric value 35 is frequently used as a threshold.

AXL = target: T2, AXL (Homo sapiens, UniProt P30530); experiment: as above; type: binding; settings: lower numbers indicate stronger activities
T2 construct: purchased Ambit Biosciences
Procedure: as §1, §2

BMPR2 = target: T3, BMPR2 (Homo sapiens, UniProt Q13873); experiment: as above; type: binding; settings: lower numbers indicate stronger activities
T3 construct: purchased Ambit Biosciences
Procedure: as §1, §2

CSF1R = target: T4, CSF1R (Homo sapiens, UniProt P07333); experiment: as above; type: binding; settings: lower numbers indicate stronger activities
T4 construct: purchased Ambit Biosciences
Procedure: as §1, §2

FAK = target: T5, FAK (Homo sapiens, UniProt Q05397); experiment: as above; type: binding; settings: lower numbers indicate stronger activities
T5 construct: purchased Ambit Biosciences
Procedure: as §1, §2

JAK3 = target: T6, JAK3 (Homo sapiens, UniProt P52333); experiment: as above; type: binding; settings: lower numbers indicate stronger activities
T6 construct: JAK2(JH1domain-catalytic), JAK3(JH1domain-catalytic); purchased Ambit Biosciences
Procedure: as §1, §2

JNK1 = target: T7, JNK1 (Homo sapiens, UniProt P45983); experiment: as above; type: binding; settings: lower numbers indicate stronger activities
T7 construct: purchased Ambit Biosciences
Procedure: as §1, §2

JNK3 = target: T8, JNK3 (Homo sapiens, UniProt P53779); experiment: as above; type: binding; settings: lower numbers indicate stronger activities
T8 construct: purchased Ambit Biosciences
Procedure: as §1, §2

KIT = target: T9, KIT (Homo sapiens, UniProt P10721); experiment: as above; type: binding; settings: lower numbers indicate stronger activities
T9 construct: purchased Ambit Biosciences
Procedure: as §1, §2

LKB1 = target: T10, LKB1 (Homo sapiens, UniProt Q15831); experiment: as above; type: binding; settings: lower numbers indicate stronger activities
T10 construct: purchased Ambit Biosciences
Procedure: as §1, §2

MLK1 = target: T11, MLK1 (Homo sapiens, UniProt P80192); experiment: as above; type: binding; settings: lower numbers indicate stronger activities
T11 construct: purchased Ambit Biosciences
Procedure: as §1, §2

PAK4 = target: T12, PAK4 (Homo sapiens, UniProt O96013); experiment: as above; type: binding; settings: lower numbers indicate stronger activities
T12 construct: purchased Ambit Biosciences
Procedure: as §1, §2

PLK4 = target: T13, PLK4 (Homo sapiens, UniProt O00444); experiment: as above; type: binding; settings: lower numbers indicate stronger activities
T13 construct: purchased Ambit Biosciences
Procedure: as §1, §2

RSK2 = target: T14, RSK2 (Homo sapiens, UniProt P51812); experiment: as above; type: binding; settings: lower numbers indicate stronger activities
T14 construct: RSK2 (Kin.Dom.1-N-terminal); purchased Ambit Biosciences
Procedure: as §1, §2

SNARK = target: T15, SNARK (Homo sapiens, UniProt Q9H093); experiment: as above; type: binding; settings: lower numbers indicate stronger activities
T15 construct: purchased Ambit Biosciences
Procedure: as §1, §2

TAK1 = target: T16, TAK1 (Homo sapiens, UniProt O43318); experiment: as above; type: binding; settings: lower numbers indicate stronger activities
T16 construct: purchased Ambit Biosciences
Procedure: as §1, §2

TYK2 = target: T17, TYK2 (Homo sapiens, UniProt P29597); experiment: as above; type: binding; settings: lower numbers indicate stronger activities
T17 construct: TYK2(JH1domain-catalytic); purchased Ambit Biosciences
Procedure: as §1, §2

A549/ATCC = experiment: cells; type: cell-based; settings: A549/ATCC (NSCLC)
NCI-H226 = experiment: cells; type: cell-based; settings: NCI-H226 (NSCLC)
SF-268 = experiment: cells; type: cell-based; settings: SF-268 (CNS Cancer)
MCF7 = experiment: cells; type: cell-based; settings: MCF7 (Breast Cancer)
[1] = Homo sapiens, read-out: LC50 (the source's name)

T6 sequence (P52333 822-1111 limits assumed): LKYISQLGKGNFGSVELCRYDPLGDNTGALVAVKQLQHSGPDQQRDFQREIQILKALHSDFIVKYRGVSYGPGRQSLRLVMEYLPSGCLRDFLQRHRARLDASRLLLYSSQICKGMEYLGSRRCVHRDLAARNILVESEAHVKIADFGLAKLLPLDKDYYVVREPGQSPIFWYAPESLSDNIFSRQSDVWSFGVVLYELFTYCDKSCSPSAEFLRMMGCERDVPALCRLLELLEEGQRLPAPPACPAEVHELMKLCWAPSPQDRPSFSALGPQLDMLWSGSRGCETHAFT
T9 sequence (P10721 26-976): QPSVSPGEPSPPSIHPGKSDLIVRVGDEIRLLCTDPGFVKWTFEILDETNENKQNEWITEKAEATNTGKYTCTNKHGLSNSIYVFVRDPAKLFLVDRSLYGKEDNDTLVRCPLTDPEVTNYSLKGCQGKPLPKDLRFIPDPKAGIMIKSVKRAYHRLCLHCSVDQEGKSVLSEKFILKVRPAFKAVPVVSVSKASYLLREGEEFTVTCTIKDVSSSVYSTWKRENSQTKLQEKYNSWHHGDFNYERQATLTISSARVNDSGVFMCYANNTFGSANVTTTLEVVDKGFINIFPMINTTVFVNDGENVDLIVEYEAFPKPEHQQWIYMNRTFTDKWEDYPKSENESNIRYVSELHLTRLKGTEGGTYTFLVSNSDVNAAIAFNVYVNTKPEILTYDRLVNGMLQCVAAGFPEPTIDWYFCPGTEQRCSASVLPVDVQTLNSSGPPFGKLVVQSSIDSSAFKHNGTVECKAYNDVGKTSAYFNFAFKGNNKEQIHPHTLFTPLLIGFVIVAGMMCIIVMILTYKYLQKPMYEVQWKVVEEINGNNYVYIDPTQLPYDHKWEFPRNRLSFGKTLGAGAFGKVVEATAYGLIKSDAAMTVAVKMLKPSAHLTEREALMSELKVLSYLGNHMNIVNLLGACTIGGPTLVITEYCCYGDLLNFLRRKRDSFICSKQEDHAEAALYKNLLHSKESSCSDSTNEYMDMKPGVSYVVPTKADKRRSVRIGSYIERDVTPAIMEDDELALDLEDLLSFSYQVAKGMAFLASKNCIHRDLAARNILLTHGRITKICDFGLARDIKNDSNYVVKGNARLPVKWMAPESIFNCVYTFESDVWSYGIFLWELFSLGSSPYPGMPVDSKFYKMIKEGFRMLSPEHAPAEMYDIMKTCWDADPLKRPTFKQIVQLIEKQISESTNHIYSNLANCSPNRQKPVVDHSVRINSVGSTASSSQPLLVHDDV
T16 sequence (O43318 whole entry): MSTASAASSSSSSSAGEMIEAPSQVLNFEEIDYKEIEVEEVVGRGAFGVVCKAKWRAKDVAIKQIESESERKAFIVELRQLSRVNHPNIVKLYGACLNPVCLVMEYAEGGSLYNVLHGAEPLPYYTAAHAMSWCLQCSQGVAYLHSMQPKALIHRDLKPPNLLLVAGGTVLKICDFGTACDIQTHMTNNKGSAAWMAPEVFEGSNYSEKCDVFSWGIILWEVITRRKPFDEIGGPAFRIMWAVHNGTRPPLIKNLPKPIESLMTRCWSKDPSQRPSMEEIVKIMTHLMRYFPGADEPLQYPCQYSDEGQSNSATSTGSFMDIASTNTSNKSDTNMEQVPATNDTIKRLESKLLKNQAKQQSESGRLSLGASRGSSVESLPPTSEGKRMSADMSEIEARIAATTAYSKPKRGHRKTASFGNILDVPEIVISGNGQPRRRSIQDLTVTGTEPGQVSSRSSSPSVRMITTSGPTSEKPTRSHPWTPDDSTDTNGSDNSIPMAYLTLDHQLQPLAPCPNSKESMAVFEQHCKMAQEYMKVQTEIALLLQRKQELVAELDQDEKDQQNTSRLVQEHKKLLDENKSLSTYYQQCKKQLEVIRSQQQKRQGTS
T5 sequence (Q05397 whole entry): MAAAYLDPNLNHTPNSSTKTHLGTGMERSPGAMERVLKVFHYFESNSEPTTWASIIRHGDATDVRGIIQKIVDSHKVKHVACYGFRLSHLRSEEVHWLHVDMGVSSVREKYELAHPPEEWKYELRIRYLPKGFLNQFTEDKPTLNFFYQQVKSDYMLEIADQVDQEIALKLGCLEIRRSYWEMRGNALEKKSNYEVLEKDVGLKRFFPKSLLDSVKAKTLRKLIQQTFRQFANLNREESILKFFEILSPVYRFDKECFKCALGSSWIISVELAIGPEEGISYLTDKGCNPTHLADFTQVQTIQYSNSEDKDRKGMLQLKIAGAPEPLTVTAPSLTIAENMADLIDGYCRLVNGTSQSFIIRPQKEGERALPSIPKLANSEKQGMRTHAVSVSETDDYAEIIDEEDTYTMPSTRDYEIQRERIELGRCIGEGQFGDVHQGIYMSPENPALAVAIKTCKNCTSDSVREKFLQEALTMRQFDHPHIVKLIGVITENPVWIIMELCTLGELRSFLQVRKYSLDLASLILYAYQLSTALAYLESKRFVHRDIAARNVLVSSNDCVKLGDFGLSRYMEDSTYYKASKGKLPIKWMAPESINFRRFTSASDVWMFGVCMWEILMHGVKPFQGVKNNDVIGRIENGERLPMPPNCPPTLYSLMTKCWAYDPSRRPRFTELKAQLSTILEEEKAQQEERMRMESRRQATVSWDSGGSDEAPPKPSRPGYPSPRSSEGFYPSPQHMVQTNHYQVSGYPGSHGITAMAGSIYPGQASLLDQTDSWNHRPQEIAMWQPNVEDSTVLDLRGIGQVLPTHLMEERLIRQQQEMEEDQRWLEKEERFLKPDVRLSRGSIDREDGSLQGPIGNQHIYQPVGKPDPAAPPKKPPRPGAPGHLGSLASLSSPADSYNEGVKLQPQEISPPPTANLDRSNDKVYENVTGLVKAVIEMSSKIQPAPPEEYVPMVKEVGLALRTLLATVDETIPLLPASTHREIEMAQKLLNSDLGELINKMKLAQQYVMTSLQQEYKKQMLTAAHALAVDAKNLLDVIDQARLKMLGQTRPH
T13 sequence (O00444 whole entry): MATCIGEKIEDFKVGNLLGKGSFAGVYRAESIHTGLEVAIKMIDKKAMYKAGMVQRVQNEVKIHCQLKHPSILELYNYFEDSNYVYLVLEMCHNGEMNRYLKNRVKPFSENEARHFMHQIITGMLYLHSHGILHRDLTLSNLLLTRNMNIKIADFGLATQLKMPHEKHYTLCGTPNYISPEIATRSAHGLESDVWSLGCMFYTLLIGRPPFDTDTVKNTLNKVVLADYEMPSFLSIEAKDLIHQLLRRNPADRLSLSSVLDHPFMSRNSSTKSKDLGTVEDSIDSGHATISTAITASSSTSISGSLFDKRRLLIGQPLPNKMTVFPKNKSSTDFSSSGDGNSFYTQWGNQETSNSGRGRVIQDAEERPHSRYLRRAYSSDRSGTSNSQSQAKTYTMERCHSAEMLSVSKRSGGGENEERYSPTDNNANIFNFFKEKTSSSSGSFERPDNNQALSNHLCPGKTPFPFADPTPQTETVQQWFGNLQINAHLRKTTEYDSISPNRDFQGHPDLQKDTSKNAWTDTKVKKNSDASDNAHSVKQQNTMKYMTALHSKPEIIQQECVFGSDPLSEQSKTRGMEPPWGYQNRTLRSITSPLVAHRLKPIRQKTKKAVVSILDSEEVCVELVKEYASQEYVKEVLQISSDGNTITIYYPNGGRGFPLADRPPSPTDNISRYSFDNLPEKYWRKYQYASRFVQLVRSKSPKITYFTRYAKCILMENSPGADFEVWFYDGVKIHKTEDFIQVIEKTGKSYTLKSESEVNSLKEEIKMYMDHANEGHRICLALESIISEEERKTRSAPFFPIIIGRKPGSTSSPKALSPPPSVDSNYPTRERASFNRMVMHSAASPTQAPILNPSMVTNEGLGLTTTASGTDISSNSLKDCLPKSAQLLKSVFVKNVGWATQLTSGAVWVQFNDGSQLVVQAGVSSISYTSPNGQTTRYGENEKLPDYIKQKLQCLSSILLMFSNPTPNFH
T14 sequence (P51812 68-327 limits assumed): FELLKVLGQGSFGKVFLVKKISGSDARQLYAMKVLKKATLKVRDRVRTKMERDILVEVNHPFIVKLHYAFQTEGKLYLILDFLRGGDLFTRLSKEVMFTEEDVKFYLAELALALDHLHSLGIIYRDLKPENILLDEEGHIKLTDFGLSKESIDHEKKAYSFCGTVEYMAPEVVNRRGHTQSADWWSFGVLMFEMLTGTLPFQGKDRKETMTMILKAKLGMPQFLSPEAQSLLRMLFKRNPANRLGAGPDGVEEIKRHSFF
T17 sequence (P29597 897-1176 limits assumed): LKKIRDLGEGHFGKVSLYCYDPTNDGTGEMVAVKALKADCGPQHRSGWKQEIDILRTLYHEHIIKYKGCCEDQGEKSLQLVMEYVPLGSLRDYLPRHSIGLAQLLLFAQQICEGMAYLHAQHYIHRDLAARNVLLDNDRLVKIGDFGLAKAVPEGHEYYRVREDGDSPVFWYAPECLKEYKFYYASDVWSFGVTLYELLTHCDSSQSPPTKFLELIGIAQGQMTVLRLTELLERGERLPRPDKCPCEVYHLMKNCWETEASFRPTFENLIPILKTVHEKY
T10 sequence (Q15831 whole entry): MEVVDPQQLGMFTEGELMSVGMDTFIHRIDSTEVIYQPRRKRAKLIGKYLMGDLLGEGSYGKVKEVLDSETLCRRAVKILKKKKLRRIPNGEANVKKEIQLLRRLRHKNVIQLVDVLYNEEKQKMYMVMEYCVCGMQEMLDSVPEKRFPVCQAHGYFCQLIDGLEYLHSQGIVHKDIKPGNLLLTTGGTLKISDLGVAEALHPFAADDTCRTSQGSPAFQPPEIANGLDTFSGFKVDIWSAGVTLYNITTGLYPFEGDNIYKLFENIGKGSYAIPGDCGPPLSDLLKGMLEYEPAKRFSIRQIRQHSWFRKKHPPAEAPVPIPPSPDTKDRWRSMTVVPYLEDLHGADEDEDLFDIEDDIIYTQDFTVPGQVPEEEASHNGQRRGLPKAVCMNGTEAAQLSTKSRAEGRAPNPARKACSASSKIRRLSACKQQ

With `O=c1[nH]ccc2nc(N3CCC(O)CC3)nc(Nc3cccc(C(F)(F)F)c3)c12` [Compound 6, 2-(4-hydroxypiperidin-1-yl)-4-(3-(trifluoromethyl)phenylamino)pyrido[4,3-d]pyrimidine-5(6H)-one] the “Percent of control (lower = stronger binding)” value (ALK) was 29%, the “% inhibition (reported as percent control)” value (AXL) was 11% and the “% inhibition (reported as percent control)” value (BMPR2) was 0%. The “% inhibition (reported as percent control)” value (CSF1R) was 5.2%, the “% inhibition (reported as percent control)” value (FAK) was 34% and the “% inhibition (reported as percent control)” value (JAK3) was 4.4%. For the same compound, the “% inhibition (reported as percent control)” value (JNK1) was 4.8%, the “% inhibition (reported as percent control)” value (JNK3) was 7% and the “% inhibition (reported as percent control)” value (KIT) was 11%. For the same compound, the “% inhibition (reported as percent control)” value (LKB1) was 18%, the “% inhibition (reported as percent control)” value (MLK1) was 2.8% and the “% inhibition (reported as percent control)” value (PAK4) was 21%. The “% inhibition (reported as percent control)” value (PLK4) was 13%, the “% inhibition (reported as percent control)” value (RSK2) was 18% and the “% inhibition (reported as percent control)” value (SNARK) was 3.6%. The “% inhibition (reported as percent control)” value (TAK1) was 1%, the “% inhibition (reported as percent control)” value (TYK2) was 16% and the TGI (A549/ATCC) was 100 µM. The GI50 (A549/ATCC; Homo sapiens) was 3.8 µM, the IC50 (A549/ATCC; Homo sapiens) was 6.31 µM and the CC50 (A549/ATCC; [1]) was 100 µM. The GI50 (NCI-H226; Homo sapiens) was 3.24 µM, the IC50 (NCI-H226; Homo sapiens) was 8.32 µM and the CC50 (NCI-H226; [1]) was 100 µM. It also gave a TGI (NCI-H226) of 17.8 µM, a GI50 (SF-268; Homo sapiens) of 3.09 µM and an IC50 (SF-268; Homo sapiens) of 12.9 µM. The CC50 (SF-268; [1]) was 100 µM, the TGI (SF-268) was 35.5 µM and the GI50 (MCF7; Homo sapiens) was 2.82 µM. The IC50 (MCF7; Homo sapiens) was 4.07 µM, the CC50 (MCF7; [1]) was 100 µM and the TGI (MCF7) was 12.6 µM.

Reference: patent publication US8404677B2, “Kinase inhibitors” (Genosco, priority 2009, dated 2013)
